Source: ChEMBL document CHEMBL4190275, “Quinoliniumolate and 2H-1,2,3-Triazole Derivatives from the Stems of Paramignya trimera and Their α-Glucosidase Inhibitory Activities: In Vitro and in Silico Studies” (J Nat Prod, 2017)

Test: Inhibition of Saccharomyces cerevisiae alpha-glucosidase using p-nitrophenyl-alpha-D-glucopyranoside as substrate measured after 30 mins

IC50 [µM] | Compound
> 250 | C/C=C/c1cc(=O)c2ccccc2n1C
138 | CCCC[C@@H](CC)COC(=O)c1cn[nH]n1
